Experimental data reported in ChEMBL document CHEMBL4840320, “Taccachatrones A-G, Highly Oxidized Steroids from the Rhizomes of Tacca chantrierii and Their Cytotoxicity Assessment” (J Nat Prod, 2021).
Calls of active or inactive are those of the source. The calls are words filed in the database; no cut-off is given here.

How the values were obtained:
Format in all cases: functional, cell-based
HL-60 = test: Cytotoxicity against human HL-60 cells assessed as reduction in cell viability measured after 48 hrs by MTT assay; settings: for IC50: HL-60, 48 h
A549 = test: Cytotoxicity against human A549 cells assessed as reduction in cell viability measured after 48 hrs by MTT assay; settings: for IC50: A549, 48 h
SW480 = test: Cytotoxicity against human SW480 cells assessed as reduction in cell viability measured after 48 hrs by MTT assay; settings: for IC50: SW480, 48 h
MCF7 = test: Cytotoxicity against human MCF7 cells assessed as reduction in cell viability measured after 48 hrs by MTT assay; settings: for IC50: MCF7, 48 h

Compound	IC50 (HL-60)	IC50 (A549)	IC50 (SW480)	IC50 (MCF7)	Activity (HL-60)	Activity (A549)	Activity (SW480)	Activity (MCF7)
CC(=O)O[C@H]1[C@H]2[C@H]([C@@H]3[C@H]4OC(C)(O)[C@]5(C)[C@H]4[C@H]([C@H](C)C(=O)[C@H]5O)[C@@]3(C)[C@H]1OC(C)=O)[C@@H](OC(C)=O)C(=O)[C@H]1C[C@@H]3O[C@H]3[C@H](OC(C)=O)[C@]21C (stereo partly specified)	> 10 µM	7.5 µM	> 10 µM	> 10 µM				
CC(=O)O[C@@H]1[C@H]2[C@@H]3[C@@H](OC(C)=O)C(=O)[C@@]4(O)C[C@@H]5O[C@H]5[C@H](OC(=O)CC(C)C)[C@]4(C)[C@H]3C[C@H](OC(C)=O)[C@]2(C)[C@@H]2[C@@H]1[C@]1(C)C(=C[C@H]2C)OC(=O)C1(C)O (stereo partly specified)	> 10 µM	8.3 µM	> 10 µM	> 10 µM				
CC(=O)O[C@H]1C[C@H]2[C@@H]([C@@H]3O[C@@H]3[C@@]3(O)C[C@@H]4O[C@@H]4[C@H](OC(C)=O)[C@]23C)[C@@H]2C[C@H]3[C@H](CO)CC(=O)[C@@H](C)[C@@H]3[C@@]12C					inactive	inactive	inactive	inactive
CC(=O)O[C@H]1C[C@H]2[C@@H](C(=O)[C@H](O)[C@@]3(O)C[C@@H]4O[C@@H]4[C@H](OC(C)=O)[C@]23C)[C@@H]2C(=O)[C@H]3[C@H](C)[C@@H](O)C[C@@H](C)[C@@H]3[C@@]12C					inactive	inactive	inactive	inactive
CC(=O)O[C@H]1C[C@H]2[C@@H](C(=O)[C@H](O)[C@@]3(O)C[C@@H]4O[C@@H]4[C@H](OC(C)=O)[C@]23C)[C@@H]2[C@H](O)[C@@H]3[C@H]([C@H](C)CC(=O)[C@H]3C)[C@]21C					inactive	inactive	inactive	inactive
CC(=O)O[C@H]1[C@H]2[C@H]([C@@H]3[C@@H](O)C4=C(C)C(=O)[C@@H](O)[C@@H](C)[C@@H]4[C@@]3(C)[C@H]1OC(C)=O)[C@@H](O)C(=O)[C@H]1C[C@@H]3O[C@@H]3[C@H](OC(C)=O)[C@]21C					inactive	inactive	inactive	inactive
CC(=O)O[C@H]1C[C@H]2[C@H]([C@@H]3[C@@H](O)[C@@H]4[C@H]([C@H](C)C=C5OC(=O)C(C)(O)[C@@]54C)[C@]31C)[C@@H](O)C(=O)[C@H]1C[C@@H]3O[C@H]3[C@H](OC(=O)CC(C)C)[C@@]12C (stereo partly specified)	1.6 µM	2.8 µM	> 10 µM	6.9 µM				
CC(=O)O[C@@H]1[C@H]2[C@H]3[C@H]([C@H](O)[C@H](OC(C)=O)[C@]2(C)[C@H]2[C@H](C)[C@H](OC(C)=O)[C@@H]4OC(=O)C(C)(O)[C@]4(C)[C@H]12)[C@]1(C)[C@H](C[C@@H]2O[C@H]2[C@@H]1OC(C)=O)C(=O)[C@@H]3O (stereo partly specified)	> 10 µM	7.3 µM	> 10 µM	> 10 µM				
CC(=O)O[C@H]1C(=O)[C@@]2(C)[C@H]([C@H](OC(=O)c3ccccc3)[C@]3(O)C[C@H](OC(=O)[C@H](O)[C@@H](NC(=O)c4ccccc4)c4ccccc4)C(C)=C1C3(C)C)[C@]1(OC(C)=O)CO[C@@H]1C[C@@H]2O [PACLITAXEL]	< 0.008 µM	< 0.008 µM	< 0.008 µM	< 0.008 µM				
